Experimental data taken from publication PMC5358997, “Fixed-dose combination orally disintegrating tablets to treat cardiovascular disease: formulation, in vitro characterization and physiologically based pharmacokinetic modeling to assess bioavailability” (Drug Design, Development and Therapy, 2017).

Legend:
[1] = Dissolution testing of ODTs in biorelevant media (USP 2 paddle), f1/f2 comparison; type: physicochemical; settings: for Similarity factor f2 / Difference factor f1: single (reference) vs FDC (test) dissolution profile; for Similarity factor f2: similar if above 50; for Difference factor f1: similar if below 15; for >85% dissolution ≤15 min: single and FDC formulations; for Results of f1 and f2 testing: similar if f1 below 15 and f2 above 50
Protocol: API dissolution from ODTs in 900 mL biorelevant media was tested in both FaSSIF and FeSSIF at pH 6.5 and 5, respectively, and maintained at 37°C. An ERWEKA DT 600 USP 2 paddle apparatus (Heusenstamm, Germany) was used at a paddle speed of 50 rpm.[27] A total of 5 mL of sample was taken over 2 h, replacing with 5 mL fresh media to simulate sink conditions. API dissolution was measured using HPLC and corrected for percent dose dissolved.
Differences between dissolution profiles of APIs in single dose (reference) and combination (test) were assessed using f1 and f2 difference and similarity factor testing using the equations:[34] f1={[∑t=1n|Rt−Tt|]/[∑t=1nRt]}*100f2=50*log{[1+(1/n)∑t=1n(Rt−Tt)^2]^−0.5*100} where Rt and Tt are the percent drug-dissolved value at each time point for the reference and test product, respectively, and n is the number of time points.

in vitro = settings: human; for efflux ratio at 2 h: Caco-2, pH 7.4, Efflux ratio; for Papp A→B at 2 h: Caco-2, pH 7.4, Papp A–B; for Papp B→A at 2 h: Caco-2, pH 7.4, Papp B–A
Protocol: Media were changed every 2–3 days and transwells cultured at 37°C, 5% CO2 for 21 days, after which transport studies were performed. […] Samples of 100 μL were removed from the A side and 200 μL from the B side at time points over 2 h, replacing with fresh prewarmed media (37°C) to mimic sink conditions. […] Cultures were maintained at 37°C and 5% CO2 throughout the experiment.

LDL-C = settings: hypercholesterolemic patients; cited from earlier work
[2] = amlodipine (20 μg/mL) and atorvastatin (40 μg/mL) in combination, pH 7.4, n=3, mean ± SD
[3] = drug alone (amlodipine 20 μg/mL, atorvastatin 40 μg/mL), pH 7.4 both compartments, n=3, mean ± SD

SMILES | Dissolution within 15 min ([1]; FaSSIF, both single and FDC ODT) | Similarity factor f2 ([1]; FaSSIF) | Difference factor f1 ([1]; FaSSIF) | >85% dissolution ≤15 min ([1]; FaSSIF) | Results of f1 and f2 testing ([1]; FaSSIF) | Dissolution within 15 min ([1]; FeSSIF, either single or FDC ODT) [%] | Similarity factor f2 ([1]; FeSSIF) | Difference factor f1 ([1]; FeSSIF) | >85% dissolution ≤15 min ([1]; FeSSIF) | Results of f1 and f2 testing ([1]; FeSSIF) | efflux ratio at 2 h (in vitro; amlodipine and atorvastatin in combination, pH 7.4) | efflux ratio at 2 h (in vitro; drug alone, pH 7.4 both compartments) | Papp A→B at 2 h (in vitro; [2]) [×10⁻⁶ cm/s] | Papp A→B at 2 h (in vitro; [3]) [×10⁻⁶ cm/s] | Papp B→A at 2 h (in vitro; [2]) [×10⁻⁶ cm/s] | Papp B→A at 2 h (in vitro; [3]) [×10⁻⁶ cm/s] | Reduction of LDL-C (LDL-C)
CCOC(=O)C1=C(COCCN)NC(C)=C(C(=O)OC)C1c1ccccc1Cl (centres unmarked) [Amlodipine, Amlodipine besylate] | exceeded 85% | 70.80 | 5.08 | Yes | Pass | ≤ 85 | 45.40 | 15.92 | No | Fail | 0.96 | 1.14 | 5.4 ± 0.48 | 8.34 ± 0.32 | 5.18 ± 0.29 | 9.51 ± 1.7 | 
CC(C)c1c(C(=O)Nc2ccccc2)c(-c2ccccc2)c(-c2ccc(F)cc2)n1CC[C@@H](O)C[C@@H](O)CC(=O)O [Atorvastatin, atorvastatin calcium] |  | 53.81 | 14.16 |  | Pass |  | 54.59 | 13.24 |  | Pass |  |  |  |  |  |  | 41%–61%
